Values of other authors as cited in patent US11304900B1, “Transparent colloidal vitamin supplement blend” (Quicksilver Scientific, Inc., priority 2017, dated 2022).
Like-named read-outs stand apart in the source and are kept apart here.

Key:
[1] = not given; remark: listed apart in the source
[2] = in vivo

| change in serum levels ([2]; iv) | change in blood serum magnesium concentration ([2]; po) | Structure (SMILES) | blood serum concentration at which antiviral effect has been demonstrated | mean peak plasma level ([1]; IV administration of 50 g/day) | increase of plasma concentration ([1]; daily intake increased from 200 mg/day to 2,500 mg/day) | highest blood serum level observed ([1]; oral administration of pharmacological doses) | plasma concentration ([1]; oral daily intake 200 mg/day) | plasma concentration ([1]; oral daily intake 2,500 mg/day) |
| --- | --- | --- | --- | --- | --- | --- | --- | --- |
|  |  | O=C1O[C@H]([C@@H](O)CO)C(O)=C1O [Vitamin C, ascorbic acid] | 10 to 15 mg/dL | 80 mg/dL | 25% | 9.3 mg/dL | 1.2 mg/dL | 1.5 mg/dL |
| double or triple | little or no change | [Mg+2] [magnesium] |  |  |  |  |  |  |
